Reference: US20120101164A1, “ABSCISSION AND CROP STORAGE UNIT” (TAMINCO, NAAMLOZE VENNOOTSCHAP, priority 2009, published 2012)
Like-named read-outs stand apart in the source and are kept apart here.

Assays:
Assay type in all cases: in vivo
RADISH—cv F1 Apache [1] = assay: Post-harvest shelf-life, auxins/precursors with or without AC; conditions: for change in vivo at 10000 µM: Raphanus sativus; for Shelf-Life Duration (days after harvest): ambient temperature, auxin/precursor 10^-2 Molar, AC 3 g per hectare equivalent, two applications
Protocol: (§1) Cultural Details: plants were sown in a commercial seed compost and then “pricked out” into a professional grade all-purpose compost in 9 cm pots set out in a randomized block design. Normal daylight plus supplementary lighting to provide a minimum of 10 hours per day. Heating was given to a minimum of 60 degrees Fahrenheit during the day and 40 degrees at night.
Sowing Date: 3 Nov. […] Application Dates: 28 Dec. […] Harvest Date: 11 Jan. […] Measurement: Shelf-Life (days after harvest) at ambient temperature.
A number of auxins or auxin precursors were compared, each at 10^−2 Molar solutions. Addition of acetaminophen (AC) was at 3 g per hectare equivalent in each test.

[2] = tested on: PAPAVER Nudicaule (Iceland Poppy); assay: Petal abscission delay, auxins/precursors with or without AC; conditions: for change in vivo at 10000 µM: Papaver nudicaule; for Total Duration of Flowering (to petal fall): auxin/precursor 10^-2 Molar solution, AC 3 g per hectare equivalent
Protocol: as §1
Sowing Date: 18 Nov. […] Application Date: 5 Jan.
Measurement Date: 12 Jan.
A number of auxins or auxin precursors were applied, each at 10^−2 Molar solutions. Addition of acetaminophen (AC) was at 3 g per hectare equivalent in each test. Measurement: Delay of first petal fall for each treatment (in days).

[3] = tested on: PAPAVER Nudicaule (Iceland Poppy); assay: Petal abscission delay, AN or AN + AC with additives; conditions: for Total Duration of Flowering (to petal fall): AN 1 g per hectare, AC 3 g per hectare, additive rate per ha as in label
Protocol: (§2) To each were added certain agrochemically acceptable additives, as examples.
as §1
Sowing Date: 19 Dec. 2009, in plugs. Application Date: 7 Feb. 2010.
Measurement Date: 12 Feb. 2010, at daily intervals.
Measurement: Delay of first petal-fall for each treatment (in days).

RADISH—cv F1 Apache [4] = assay: Post-harvest shelf-life, AN or AN + AC with additives; conditions: for Shelf-Life Duration (days after harvest): AN 1 g per hectare, AC 3 g per hectare, additive rate per ha as in label
Protocol: as §2, §1
Sowing Date: 28 Jan. 2010, in plugs. Application Date: 5 Mar. 2010.
Measurement Date: 13 Mar. 2010. • Measurement: Shelf-life duration (days).

[5] = read-out: % Improvement over control, shelf-life
[6] = read-out: % Improvement over control, duration of flowering
[7] = shelf-life, read-out: % Improvement over control
[8] = duration of flowering, read-out: % Improvement over control
[9] = read-out: % Improvement over control

| SMILES | change in vivo at 10000 µM (RADISH—cv F1 Apache [1]; [5]) | Shelf-Life Duration (days after harvest) (RADISH—cv F1 Apache [1]) | change in vivo at 10000 µM [2, 6] | Total Duration of Flowering (to petal fall) [2] | change in vivo at 10000 µM (RADISH—cv F1 Apache [1]; [7]) | change in vivo at 10000 µM [2, 8] | further results |
| --- | --- | --- | --- | --- | --- | --- | --- |
| COC(=O)c1ccccc1N [Anthranilic acid methyl ester] | 38.1% | 8.7 days | 23.5% | 12.1 days | – | – | – |
| CC(=O)Nc1ccc(O)cc1 [AC, N-(4-hydroxypheyl)acetamide, reference compound] | – | 6.2 days | – | 9.9 days | 0% | 0% | Total Duration of Flowering (to petal fall) [3]: 8.8 days; Shelf-Life Duration (days after harvest) (RADISH—cv F1 Apache [4]): 5.8 days |
| CC(N)=O [Acetamide] | – | 8.7 days | – | 11.7 days | 38.1% | 19.4% | – |
| Nc1ccccc1C(=O)O [Anthranilic acid, anthranilic acid] | – | 8.6 days | – | 12.2 days | – | – | Total Duration of Flowering (to petal fall) [3]: 10.9 days; % Improvement over appropriate control (ie AN or AN + AC) ([3]; duration of flowering): +0.0%; % Improvement over untreated ([3]; duration of flowering): +23.9%; % Improvement over control (RADISH—cv F1 Apache [1]; shelf-life): +36.5%; Shelf-Life Duration (days after harvest) (RADISH—cv F1 Apache [4]): 8.5 days; % Improvement over untreated (RADISH—cv F1 Apache [4]; shelf-life): +44.1%; % Improvement over control ([2]; duration of flowering): +24.5% |
| N[C@@H](Cc1c[nH]c2ccccc12)C(=O)O [L-Tryptophan] | – | 6.5 days | – | 10.8 days | – | – | change in vivo at 10000 µM (RADISH—cv F1 Apache [1]; [9]): 3.2%; change in vivo at 10000 µM [2, 9]: 10.2% |
| NCCc1c[nH]c2ccccc12 [Tryptamine] | 11.1% | 7.0 days | 19.4% | 11.7 days | – | – | – |
| Nc1ccccc1C(=O)[O-].[Na+] [Anthranilic Acid monosodium salt] | 22.2% | 7.7 days | 19.4% | 11.7 days | – | – | – |
| Nc1c(O)cccc1C(=O)O [3-Hydroxyanthranilic acid] | – | 7.3 days | – | 11.6 days | 15.9% | 18.4% | – |
| NC(=O)Cc1c[nH]c2ccccc12 [Indole-3-acetamide] | – | 6.5 days | – | 11.9 days | 3.2% | 21.4% | – |
